The record followed here is patent US11866518B2, “Bicyclic peptide ligands specific for TSLP” (BicycleTx Limited, priority 2020, dated 2024).

*1 amine or outer side, *2 acyl side, *3 side chain or, on linkers, in order; H or OH if unused. Where a SMILES comes first, the peptide text is derived from it. Bridges are numbered along the chain shown (N, C = ends). TATA = O=C(CC[*:1])N1CN(C(=O)CC[*:2])CN(C(=O)CC[*:3])C1

In the test the target is TSLP (Homo sapiens, UniProt Q969D9). Put plainly: Human TSLP Surface Plasmon Resonance (SPR) binding assay. To be noted: biotinylated human TSLP immobilized on streptavidin chip; 20° C.; steady-state or kinetic 1:1 fit; read-out: hTSLP SPR Kd. Also on record: The resulting construct spCD33-6×HN-TEV-hTSLP(29-159)-Avi; 6xHN tag with TEV site (N, cleaved yes); made in house; host or cells: Expi293F cells.
TSLP, sequence (Q969D9 29-159): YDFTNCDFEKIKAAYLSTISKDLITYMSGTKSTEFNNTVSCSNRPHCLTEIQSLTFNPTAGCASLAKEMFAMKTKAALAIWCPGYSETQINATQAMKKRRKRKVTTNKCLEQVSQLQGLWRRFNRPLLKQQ
As to `CC(=O)N[C@H]1CSCCC(=O)N2CN3CN(C2)C(=O)CCSC[C@H](NC(=O)[C@H](CC(=O)O)NC(=O)[C@H](CCC(=O)O)NC(=O)[C@H](CC(C)C)NC(=O)[C@H](Cc2c[nH]c4ccccc24)NC(=O)[C@H](CCC(N)=O)NC1=O)C(=O)N[C@@H](Cc1c[nH]c2ccccc12)C(=O)N[C@@H](CCCNC(=N)N)C(=O)NCC(=O)N[C@@H](Cc1ccc(C(F)(F)F)cc1)C(=O)N[C@H](C(N)=O)CSCCC3=O` [Example 77, Ac-(SEQ ID NO: 58)], the Kd came to 93 nM. As to `CC(=O)N[C@H]1CSCCC(=O)N2CN3CN(C2)C(=O)CCSC[C@H](NC(=O)[C@H](CC(=O)O)NC(=O)[C@H](CCC(=O)O)NC(=O)[C@H](CC(C)C)NC(=O)[C@H](Cc2c[nH]c4ccccc24)NC(=O)[C@H](CCC(N)=O)NC1=O)C(=O)N[C@@H](Cc1c[nH]c2ccccc12)C(=O)N[C@@H](CCCC[N+](C)(C)C)C(=O)NCC(=O)N[C@@H](Cc1ccccc1)C(=O)N[C@H](C(N)=O)CSCCC3=O` [Example 81, Ac-(SEQ ID NO: 61)], the equilibrium dissociation constant (Kd) was 100 nM. The result for `CC(C)C[C@@H]1NC(=O)[C@H](Cc2c[nH]c3ccccc23)NC(=O)[C@H](CCC(N)=O)NC(=O)[C@@H](N)CSCCC(=O)N2CN3CN(C2)C(=O)CCSC[C@H](NC(=O)[C@H](CC(=O)O)NC(=O)[C@H](CCC(=O)O)NC1=O)C(=O)N[C@@H](Cc1c[nH]c2ccccc12)C(=O)N[C@@H](CCCNC(N)=O)C(=O)NCC(=O)N[C@@H](Cc1ccccc1)C(=O)N[C@H](C(N)=O)CSCCC3=O` [Example 102, (SEQ ID NO: 76)] reads 170 nM. The value for `CC(C)C[C@@H]1NC(=O)[C@H](Cc2c[nH]c3ccccc23)NC(=O)[C@H](CC(N)=O)NC(=O)[C@@H](NC(=O)[C@H](C)N)CSCCC(=O)N2CN3CN(C2)C(=O)CCSC[C@H](NC(=O)[C@H](CC(=O)O)NC(=O)[C@H](CCC(=O)O)NC1=O)C(=O)N[C@@H](Cc1c[nH]c2ccccc12)C(=O)N[C@@H](Cc1c[nH]cn1)C(=O)NCC(=O)N[C@@H](Cc1ccccc1)C(=O)N[C@H](C(=O)N[C@@H](Cc1c[nH]cn1)C(=O)N[C@@H](CCC(=O)O)C(=O)N[C@@H](CCC(=O)O)C(N)=O)CSCCC3=O` [Example 125, A-(SEQ ID NO: 89)-HEE] (H-ACNWLEDCWHGFCHEE-NH2; linker 2-8-13 via TATA) was 300 nM; that for `CC(C)C[C@@H]1NC(=O)[C@H](Cc2c[nH]c3ccccc23)NC(=O)[C@H](CCC(N)=O)NC(=O)[C@@H](N)CSCCC(=O)N2CN3CN(C2)C(=O)CCSC[C@H](NC(=O)[C@H](CC(=O)O)NC(=O)[C@H](CCC(=O)O)NC1=O)C(=O)N[C@@H](Cc1c[nH]c2ccccc12)C(=O)N[C@@H](CCCNC(=N)N)C(=O)NCC(=O)N[C@@H](Cc1ccccc1)C(=O)N[C@H](C(=O)N[C@@H](CC(=O)O)C(=O)N[C@H](C(=O)N[C@@H](CO)C(=O)N[C@H](C(=O)N[C@@H](Cc1c[nH]cn1)C(=O)N[C@@H](CO)C(N)=O)[C@@H](C)O)[C@@H](C)O)CSCCC3=O` [Example 128, (SEQ ID NO: 38)-DTSTHS] (H-CQWLEDCWRGFCDTSTHS-NH2; linker 1-7-12 via TATA) was 380 nM; that for `CC(=O)N[C@H]1CSCCC(=O)N2CN3CN(C2)C(=O)CCSC[C@H](NC(=O)[C@H](CC(=O)O)NC(=O)[C@H](CCC(=O)O)NC(=O)[C@H](CC(C)C)NC(=O)[C@H](Cc2c[nH]c4ccccc24)NC(=O)[C@H](CCC(N)=O)NC1=O)C(=O)N[C@@H](Cc1c[nH]c2ccccc12)C(=O)N[C@@H](CCONC(=N)N)C(=O)NCC(=O)N[C@@H](Cc1ccccc1)C(=O)N[C@H](C(N)=O)CSCCC3=O` [Example 131, Ac-(SEQ ID NO: 92)] was 400 nM. The result for `CC(=O)N[C@H]1CSCCC(=O)N2CN3CN(C2)C(=O)CCSC[C@H](NC(=O)[C@H](CC(=O)O)NC(=O)[C@H](CCC(=O)O)NC(=O)[C@H](CC(C)C)NC(=O)[C@H](Cc2c[nH]c4ccccc24)NC(=O)[C@H](CCC(N)=O)NC1=O)C(=O)N[C@@H](Cc1c[nH]c2ccccc12)C(=O)N[C@@H](CCCNC(=N)N)C(=O)NCC(=O)N[C@@H](Cc1cccs1)C(=O)N[C@H](C(N)=O)CSCCC3=O` [Example 135, Ac-(SEQ ID NO: 96)] reads 490 nM; that for `CC(C)C[C@@H]1NC(=O)[C@H](Cc2c[nH]c3ccccc23)NC(=O)[C@H](CC(=O)O)NC(=O)[C@@H](NC(=O)[C@H](C)N)CSCCC(=O)N2CN3CN(C2)C(=O)CCSC[C@H](NC(=O)[C@H](CC(=O)O)NC(=O)[C@H](CC(=O)O)NC1=O)C(=O)N[C@@H](Cc1c[nH]c2ccccc12)C(=O)N[C@@H](CCCCN)C(=O)NCC(=O)N[C@@H](Cc1ccccc1)C(=O)N[C@H](C(=O)N[C@@H](C)C(N)=O)CSCCC3=O` [Example 141, A-(SEQ ID NO: 100)-A] (H-ACDWLDDCWKGFCA-NH2; linker 2-8-13 via TATA; N-terminus and C-terminus assumed), 600 nM; that for `COc1ccc(C[C@@H]2NC(=O)CNC(=O)[C@H](CCCNC(=N)N)NC(=O)[C@H](Cc3c[nH]c4ccccc34)NC(=O)[C@@H]3CSCCC(=O)N4CN(CN(C4)C(=O)CCSC[C@H](NC(C)=O)C(=O)N[C@@H](CCC(N)=O)C(=O)N[C@@H](Cc4c[nH]c5ccccc45)C(=O)N[C@@H](CC(C)C)C(=O)N[C@@H](CCC(=O)O)C(=O)N[C@@H](CC(=O)O)C(=O)N3)C(=O)CCSC[C@@H](C(N)=O)NC2=O)cc1` [Example 142, Ac-(SEQ ID NO: 101)], 710 nM.

Turning to `CC(=O)N[C@H]1CSCCC(=O)N2CN3CN(C2)C(=O)CCSC[C@H](NC(=O)[C@H](CC(=O)O)NC(=O)[C@H](CCC(=O)O)NC(=O)[C@H](CC(C)C)NC(=O)[C@H](Cc2c[nH]c4ccccc24)NC(=O)[C@H](CCC(N)=O)NC1=O)C(=O)N[C@@H](Cc1c[nH]c2ccccc12)C(=O)N[C@@H](CCCNC(=N)N)C(=O)NCC(=O)N[C@@H](Cc1cccc(Br)c1)C(=O)N[C@H](C(N)=O)CSCCC3=O` [Example 143, Ac-(SEQ ID NO: 102)], the Kd amounted to 750 nM. As for `CC(=O)N[C@H]1CSCCC(=O)N2CN3CN(C2)C(=O)CCSC[C@H](NC(=O)[C@H](CC(=O)O)NC(=O)[C@H](CCC(=O)O)NC(=O)[C@H](CC(C)C)NC(=O)[C@H](Cc2c[nH]c4ccccc24)NC(=O)[C@H](CCC(N)=O)NC1=O)C(=O)N[C@@H](Cc1c[nH]c2ccccc12)C(=O)N[C@@H](CCCNC(=N)N)C(=O)NCC(=O)N[C@@H](Cc1ccccn1)C(=O)N[C@H](C(N)=O)CSCCC3=O` [Example 146, Ac-(SEQ ID NO: 105)], the Kd is 910 nM.

For `CC(=O)N[C@H]1CSCCC(=O)N2CN3CN(C2)C(=O)CCSC[C@H](NC(=O)[C@H](CC(=O)O)NC(=O)[C@H](CCC(=O)O)NC(=O)[C@H](CC[S+](C)[O-])NC(=O)[C@H](Cc2c[nH]c4ccccc24)NC(=O)[C@H](CCC(N)=O)NC1=O)C(=O)N[C@@H](Cc1c[nH]c2ccccc12)C(=O)N[C@@H](CCCNC(=N)N)C(=O)NCC(=O)N[C@@H](Cc1ccccc1)C(=O)N[C@H](C(N)=O)CSCCC3=O` (stereo partly shown) [Example 147, Ac-(SEQ ID NO: 106)], the Kd is 940 nM. The result for `CC(=O)N[C@H]1CSCCC(=O)N2CN3CN(C2)C(=O)CCSC[C@H](NC(=O)[C@H](CC(=O)O)NC(=O)[C@H](CCC(=O)O)NC(=O)[C@H](CC(C)C)NC(=O)[C@H](Cc2c[nH]c4ccccc24)NC(=O)[C@H](CCC(N)=O)NC1=O)C(=O)N[C@@H](Cc1c[nH]c2ccccc12)C(=O)N[C@@H](CCCNC(=N)N)C(=O)NCC(=O)N[C@@H](CCc1ccccc1)C(=O)N[C@H](C(N)=O)CSCCC3=O` [Example 148, Ac-(SEQ ID NO: 107)] reads 1100 nM.
